{"source": "paper PMC4583449", "about": "“Characterisation of (R)-2-(2-Fluorobiphenyl-4-yl)-N-(3-Methylpyridin-2-yl)Propanamide as a Dual Fatty Acid Amide Hydrolase: Cyclooxygenase Inhibitor” (PLoS ONE, 2015)", "key": {"RAW 264.7 cells [1]": {"tested_on": "RAW 264.7 cells", "assay": "Lipid profile (prostaglandins, 2-AG, AEA and related lipids) of RAW 264.7 cell extracts, UPLC-MS/MS", "assay_type": "cell-based, mouse", "settings": "30 min, URB597 1 μM"}, "RAW 264.7 cells [2]": {"tested_on": "RAW 264.7 cells", "assay": "[3H]AEA hydrolysis by intact RAW 264.7 cells", "assay_type": "cell-based, mouse", "settings": "LPS + INF-γ-treated cells; 100 nM [3H]AEA, 60 min; URB597 1 μM, flurbiprofen and (R)-Flu-AM1 10 μM"}, "[3]": {"settings": "LPS + IFNγ 24 h, flurbiprofen 10 μM, (R)-Flu-AM1 10 μM, median (range), n = 5–6"}, "[4]": {"settings": "Treatment None (unstimulated), flurbiprofen 10 μM, (R)-Flu-AM1 10 μM, median (range), n = 5–6"}}, "data": [{"smiles": "NC(=O)c1cccc(-c2cccc(OC(=O)NC3CCCCC3)c2)c1", "note": "[URB597, cyclohexylcarbamic acid 3′-carbamoylbiphenyl-3-yl ester, reference compound]", "values": [{"measurement": "2-AG level relative to vehicle None median", "setting": "RAW 264.7 cells [1]; [3]", "value": "0.90 (0.70–1.11)"}, {"measurement": "9,10,13-TriHOME level relative to vehicle None median", "setting": "RAW 264.7 cells [1]; [3]", "value": "1.08 (0.68–1.89)"}, {"measurement": "9,10-DiHOME level relative to vehicle None median", "setting": "RAW 264.7 cells [1]; [3]", "value": "0.76 (0.69–1.05)"}, {"measurement": "9,12,13-TriHOME level relative to vehicle None median", "setting": "RAW 264.7 cells [1]; [3]", "value": "1.08 (0.66–1.79)"}, {"measurement": "9-HODE level relative to vehicle None median", "setting": "RAW 264.7 cells [1]; [3]", "value": "1.11 (0.49–1.20)"}, {"measurement": "11-HETE level relative to vehicle None median", "setting": "RAW 264.7 cells [1]; [3]", "value": "13.0 (4.82–25.7)"}, {"measurement": "12(13)-EpOME level relative to vehicle None median", "setting": "RAW 264.7 cells [1]; [3]", "value": "1.24 (0.92–1.72)"}, {"measurement": "12(S)-HEPE level relative to vehicle None median", "setting": "RAW 264.7 cells [1]; [3]", "value": "0.59 (0.28–1.36)"}, {"measurement": "12,13-DiHOME level relative to vehicle None median", "setting": "RAW 264.7 cells [1]; [3]", "value": "0.93 (0.85–1.26)"}, {"measurement": "12-HETE level relative to vehicle None median", "setting": "RAW 264.7 cells [1]; [3]", "value": "0.61 (0.41–0.96)"}, {"measurement": "13-HODE level relative to vehicle None median", "setting": "RAW 264.7 cells [1]; [3]", "value": "1.16 (0.49–1.43)"}, {"measurement": "13-oxo-ODE level relative to vehicle None median", "setting": "RAW 264.7 cells [1]; [3]", "value": "1.52 (0.34–2.87)"}, {"measurement": "15-HETE level relative to vehicle None median", "setting": "RAW 264.7 cells [1]; [3]", "value": "4.58 (0.97–5.29)"}, {"measurement": "AEA level relative to vehicle None median", "setting": "RAW 264.7 cells [1]; [3]", "value": "1.39 (1.26–1.58)"}, {"measurement": "LEA level relative to vehicle None median", "setting": "RAW 264.7 cells [1]; [3]", "value": "1.06 (0.79–1.87)"}, {"measurement": "OEA level relative to vehicle None median", "setting": "RAW 264.7 cells [1]; [3]", "value": "0.97 (0.74–1.96)"}, {"measurement": "PEA level relative to vehicle None median", "setting": "RAW 264.7 cells [1]; [3]", "value": "0.97 (0.88–1.31)"}, {"measurement": "PGD2 level relative to vehicle None median", "setting": "RAW 264.7 cells [1]; [3]", "value": "35.1 (19.4–117)"}, {"measurement": "PGE2 level relative to vehicle None median", "setting": "RAW 264.7 cells [1]; [3]", "value": "10.6 (7.33–33.5)"}, {"measurement": "SEA level relative to vehicle None median", "setting": "RAW 264.7 cells [1]; [3]", "value": "0.79 (0.67–1.28)"}, {"measurement": "Effect on levels of AEA and related N-acylethanolamines in the cells", "setting": "RAW 264.7 cells [1]; LPS + INF-γ-treated, ionomycin (5 μM) treated cells, flurbiprofen and (R)-Flu-AM1 10 μM", "value": "modest effects"}, {"measurement": "2-AG level relative to vehicle None median", "setting": "RAW 264.7 cells [1]; [4]", "value": "1.10 (0.61–1.47)"}, {"measurement": "9,10,13-TriHOME level relative to vehicle None median", "setting": "RAW 264.7 cells [1]; [4]", "value": "1.13 (0.44–2.51)"}, {"measurement": "9,10-DiHOME level relative to vehicle None median", "setting": "RAW 264.7 cells [1]; [4]", "value": "1.10 (0.65–1.32)"}, {"measurement": "9,12,13-TriHOME level relative to vehicle None median", "setting": "RAW 264.7 cells [1]; [4]", "value": "1.23 (0.51–2.53)"}, {"measurement": "9-HODE level relative to vehicle None median", "setting": "RAW 264.7 cells [1]; [4]", "value": "1.14 (0.72–2.07)"}, {"measurement": "11-HETE level relative to vehicle None median", "setting": "RAW 264.7 cells [1]; [4]", "value": "1.12 (0–2.69)"}, {"measurement": "12(13)-EpOME level relative to vehicle None median", "setting": "RAW 264.7 cells [1]; [4]", "value": "1.07 (0.66–1.66)"}, {"measurement": "12(S)-HEPE level relative to vehicle None median", "setting": "RAW 264.7 cells [1]; [4]", "value": "0.59 (0–0.85)"}, {"measurement": "12,13-DiHOME level relative to vehicle None median", "setting": "RAW 264.7 cells [1]; [4]", "value": "1.15 (1.04–1.39)"}, {"measurement": "12-HETE level relative to vehicle None median", "setting": "RAW 264.7 cells [1]; [4]", "value": "0.94 (0.33–1.48)"}, {"measurement": "13-HODE level relative to vehicle None median", "setting": "RAW 264.7 cells [1]; [4]", "value": "1.42 (0.79–1.75)"}, {"measurement": "13-oxo-ODE level relative to vehicle None median", "setting": "RAW 264.7 cells [1]; [4]", "value": "1.40 (0.76–2.27)"}, {"measurement": "15-HETE level relative to vehicle None median", "setting": "RAW 264.7 cells [1]; [4]", "value": "1.02 (0.25–2.16)"}, {"measurement": "AEA level relative to vehicle None median", "setting": "RAW 264.7 cells [1]; [4]", "value": "0.85 (0.45–1.18)"}, {"measurement": "LEA level relative to vehicle None median", "setting": "RAW 264.7 cells [1]; [4]", "value": "0.79 (0.68–1.15)"}, {"measurement": "PEA level relative to vehicle None median", "setting": "RAW 264.7 cells [1]; [4]", "value": "1.07 (0.87–1.28)"}, {"measurement": "PGD2 level relative to vehicle None median", "setting": "RAW 264.7 cells [1]; [4]", "value": "1.37 (0.79–2.48)"}, {"measurement": "PGE2 level relative to vehicle None median", "setting": "RAW 264.7 cells [1]; [4]", "value": "0.98 (0.49–1.81)"}, {"measurement": "SEA level relative to vehicle None median", "setting": "RAW 264.7 cells [1]; [4]", "value": "0.80 (0.65–1.27)"}, {"measurement": "Effect on hydrolysis of exogenous [3H]AEA by intact cells", "setting": "RAW 264.7 cells [2]", "value": "completely blocked"}]}]}
